Test results as given in patent US9108930B2, “N1- and N2-carbamoyl-1,2,3-triazole serine hydrolase inhibitors and methods” (The Scripps Research Institute, priority 2011, dated 2015).

Experiments:
APEH [1] = molecular target: T1, APEH (Mus musculus, UniProt Q8R146); test: Fluorogenic APEH substrate assay on brain proteomes of treated mice; type: in vivo; conditions: 0.4 mg/kg; brain proteome
T1 sequence (Q8R146 1-732): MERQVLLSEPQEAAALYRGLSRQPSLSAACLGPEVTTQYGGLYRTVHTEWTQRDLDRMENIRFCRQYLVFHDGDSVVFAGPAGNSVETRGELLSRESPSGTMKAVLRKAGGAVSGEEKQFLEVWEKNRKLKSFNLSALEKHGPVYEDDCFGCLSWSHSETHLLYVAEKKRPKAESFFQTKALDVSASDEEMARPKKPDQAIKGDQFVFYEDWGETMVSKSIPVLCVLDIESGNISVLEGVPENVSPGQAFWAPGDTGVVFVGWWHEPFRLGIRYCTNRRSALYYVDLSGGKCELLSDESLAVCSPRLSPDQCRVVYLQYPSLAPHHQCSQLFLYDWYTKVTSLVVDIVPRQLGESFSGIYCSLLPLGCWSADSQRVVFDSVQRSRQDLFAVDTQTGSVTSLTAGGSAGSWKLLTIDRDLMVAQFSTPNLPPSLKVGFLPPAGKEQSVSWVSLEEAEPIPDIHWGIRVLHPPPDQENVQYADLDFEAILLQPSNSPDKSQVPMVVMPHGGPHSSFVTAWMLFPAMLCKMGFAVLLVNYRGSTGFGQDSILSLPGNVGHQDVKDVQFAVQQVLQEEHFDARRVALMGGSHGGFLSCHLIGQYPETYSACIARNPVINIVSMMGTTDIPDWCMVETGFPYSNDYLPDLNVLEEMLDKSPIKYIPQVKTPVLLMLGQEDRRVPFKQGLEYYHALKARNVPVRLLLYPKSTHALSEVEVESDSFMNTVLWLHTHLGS
Protocol: APEH activity assay was performed using fluorogenic substrate N-Acetyl-L-alanine p-nitroanilide.
Soluble brain proteomes (100 μL of 1 mg/mL protein) from AA74-1 (or vehicle)-injected mice were treated in a 96-well plate with N-acetyl-L-alanine 4-nitroanilide (100 μM final concentration) and the samples were incubated for 2 h at 37° C. Relative absorbance was measured with a plate reader at […]. Inhibition curves were generated using PRISM® software (GraphPad). Calculated values represent means±s.e.m for three independent experiments.

APEH [2] = molecular target: T1, APEH; test: In vivo APEH inhibition, gel-based competitive ABPP of brain and heart; conditions: i.p., 4 h; doses 0.2-1.6 mg/kg
Protocol: The potency and selectivity of 1,2,3-triazole ureas in vivo also was investigated. Mice were treated with the APEH inhibitor AA74-1 at various doses (0.2-1.6 mg/kg; PEG300 or 18:1:1 saline/ethanol/emulphor intraperitoneally) and sacrificed after 4 h. Brains and hearts were removed, homogenized, and analyzed by gel-based competitive ABPP. […] Finally, the possibility of extending ABPP-SILAC for the characterization of inhibitor selectivity in vivo was explored by taking advantage of recently described protocols for stable isotope labeling in mammals (SILAM). In this approach, brain tissues from vehicle- and AA74-1-treated mice were separately mixed with equivalent amounts of brain tissue from ‘heavy’ amino acid-fed mice, and the samples were then labeled with FP-biotin, enriched by avidin chromatography, analyzed by LC-MS, and SH activities quantified by measuring the ratio-of-ratios for observed peptide signals. […] The ratio-of-ratio signals for APEH indicated greater than 90% inhibition of this enzyme in AA74-1-treated animals (FIG. 5b, top), consistent with average spectral count values (14 and 1 spectral counts for APEH in vehicle-treated versus AA74-1-treated mice, respectively; FIG. 5b, bottom). […] ACHE, an enzyme that is targeted by other reported NHU inhibitors, was not inhibited by AA74-1 in either mouse brain (FIG. 5b) or transfected cell (FIG. 16) proteomes. […]

[3] = tested on: N-terminally modified proteins (APEH substrates) in mouse T-cells; test: SILAC-based N-terminal labeling and enrichment in mouse T-cells
ABHD6 [4] = molecular target: T2, ABHD6 (Mus musculus, UniProt Q8R2Y0); test: ABPP-SILAM of brain tissue from treated mice; type: in vivo; parameters: from tissue; host or cells: thioglycolate-elicited peritoneal macrophages of mice; conditions: may not represent actual changes
T2 sequence (Q8R2Y0 1-336): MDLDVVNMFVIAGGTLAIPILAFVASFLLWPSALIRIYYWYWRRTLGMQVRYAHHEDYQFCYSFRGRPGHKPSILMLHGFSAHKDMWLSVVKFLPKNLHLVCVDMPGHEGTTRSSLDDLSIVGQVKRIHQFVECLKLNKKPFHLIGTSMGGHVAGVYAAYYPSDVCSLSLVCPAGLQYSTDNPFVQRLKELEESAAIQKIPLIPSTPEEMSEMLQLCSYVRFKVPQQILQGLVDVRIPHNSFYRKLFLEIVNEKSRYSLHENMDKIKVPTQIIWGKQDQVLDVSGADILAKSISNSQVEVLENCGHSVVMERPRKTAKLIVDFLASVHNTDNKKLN
Protocol: The potency and selectivity of 1,2,3-triazole ureas in vivo also was investigated. Mice were treated with the APEH inhibitor AA74-1 at various doses (0.2-1.6 mg/kg; PEG300 or 18:1:1 saline/ethanol/emulphor intraperitoneally) and sacrificed after 4 h. Brains and hearts were removed, homogenized, and analyzed by gel-based competitive ABPP. […] Finally, the possibility of extending ABPP-SILAC for the characterization of inhibitor selectivity in vivo was explored by taking advantage of recently described protocols for stable isotope labeling in mammals (SILAM). In this approach, brain tissues from vehicle- and AA74-1-treated mice were separately mixed with equivalent amounts of brain tissue from ‘heavy’ amino acid-fed mice, and the samples were then labeled with FP-biotin, enriched by avidin chromatography, analyzed by LC-MS, and SH activities quantified by measuring the ratio-of-ratios for observed peptide signals. […] The ratio-of-ratio signals for APEH indicated greater than 90% inhibition of this enzyme in AA74-1-treated animals (FIG. 5b, top), consistent with average spectral count values (14 and 1 spectral counts for APEH in vehicle-treated versus AA74-1-treated mice, respectively; FIG. 5b, bottom). […]
C57BL6 mice were labeled with ^15N. […] Brains were determined to be 95% labeled by mass spectrometry with ^15N and used for quantitative analysis. […]

ABHD6 [5] = molecular target: T2, ABHD6; test: ABPP-SILAC in Neuro2A cells; conditions: about 4 hours; 25 nM

Row | Structure (SMILES) | APEH inhibition by substrate assay (APEH [1]) | dose (as low as) giving complete inhibition of APEH in brain and heart (APEH [2]) [mg/kg] | changes in N-terminal labeling signals of five N-terminally acetylated proteins ([3]; 1 nM) [fold] | number of proteins with consistent two-fold or greater reductions in N-terminal labeling signals ([3]; 1 nM versus DMSO) [proteins] | partial inhibition of ABHD6 suggested by ratio-of-ratio signals (ABHD6 [4]) | ABHD6 activity blocked (ABHD6 [5]) [%]
1 | CC(C)CC(O)(CC(C)C)c1cnn(C(=O)N2CCCC2)n1 [AA74-1] | Complete inhibition of APEH | 0.4 | 2.5 to 4.6 | 25 | 50-60% | –
2 | COc1ccc(-c2ccc(-c3cn(C(=O)N4CCCCC4c4ccccc4)nn3)cc2)cc1 (stereo not drawn) [KT195] | – | – | – | – | – | > 90
